The source of these data is patent US20180170904A1, “PYRIDIN-3-YL ACETIC ACID DERIVATIVES AS INHIBITORS OF HUMAN IMMUNODEFICIENCY VIRUS REPLICATION” (priority 2015, published 2018).

The first assay deals with NL-RLuc virus (recombinant NL4-3 proviral clone with Renilla Luciferase gene). Briefly: Inhibition of HIV replication (NL-RLuc reporter virus in MT-2 cells). The conditions noted are these: Renilla, NL43, 120 h, read-out: Activity. In kind it is cell-based. An excerpt: Inhibition of HIV replication: A recombinant NL-RLuc proviral clone was constructed in which a section of the nef gene from NL4-3 was replaced with the Renilla Luciferase gene. This virus is fully infectious and can undergo multiple cycles of replication in cell culture. In addition, the luciferous reporter provides a simple and easy method for quantitating the extent of virus growth and consequently, the antiviral activity of test compounds. The plasmid pNLRLuc contains the proviral NL-Rluc DNA cloned into pUC18 at the PvuII site. The NL-RLuc virus was prepared by transfection of 293T cells with the plasmid pNLRLuc. Transfections were performed using the LipofectAMINE PLUS kit from Invitrogen (Carlsbad, Calif.) according to the manufacturer and the virus generated was titered in MT-2 cells. For susceptibility analyses, the titrated virus was used to infect MT-2 cells in the presence of compound, and after 5 days of incubation, cells were processed and quantitated for virus growth by the amount of expressed luciferase. Assay media was RPMI 1640 supplemented with 10% heat inactivated fetal bovine serum (FBS), 100 units/ml penicillin G/100 units/ml streptomycin, 10 mM HEPES buffer pH 7.55 and 2 mM L-glutamine. The results from at least 2 experiments were used to calculate the EC50 values. Luciferase was quantitated using the Dual Luciferase kit from Promega (Madison, Wis.). Susceptibility of viruses to compounds was determined by incubation in the presence of serial dilutions of the compound. The 50% effective concentration (EC50) was calculated by using the exponential form of the median effect equation where (Fa)=1/[1+(ED50/drug conc.)^m] (Johnson V A, Byington R T. Infectivity Assay. In Techniques in HIV Research. ed. Aldovini A, Walker B D. 71-76. New York: Stockton Press.1990). Activity equal to A refers to a compound having an EC50≤100 nM, while B and C denote compounds having an EC50 between 100 nM and 1 uM (B) or >1 uM (C).
In the case of `COC1(C)CCN(c2c(-c3ccc(C(=O)NCc4ccccc4)cc3)c(C)nc(C)c2[C@H](OC(C)(C)C)C(=O)O)CC1` [Example 60, (S)-2-(5-(4-(Benzylcarbamoyl)phenyl)-4-(4-methoxy-4-methylpiperidin-1-yl)-2,6-dimethylpyridin-3-yl)-2-(tert-butoxy)acetic acid], the EC50 was less than 0.1 µM. Same read-out and setting: in the case of `Cc1cc(CNC(=O)c2ccc(-c3c(C)nc(C)c([C@H](OC(C)(C)C)C(=O)O)c3N3CCC(C)(C)CC3)cc2)ccc1F` [Example 1, (S)-2-(tert-Butoxy)-2-(4-(4,4-dimethylpiperidin-1-yl)-5-(4-((4-fluoro-3-methylbenzyl)carbamoyl)phenyl)-2,6-dimethylpyridin-3-yl)acetic acid] it was less than 0.1 µM. For the molecule `Cc1nc(C)c([C@H](OC(C)(C)C)C(=O)O)c(N2CCC(C)(C)CC2)c1-c1ccccc1` [Example 7, (S)-2-(tert-Butoxy)-2-(4-(4,4-dimethylpiperidin-1-yl)-2,6-dimethyl-5-phenylpyridin-3-yl)acetic acid], the EC50 was less than 0.1 µM. As for `Cc1nc(C)c([C@H](OC(C)(C)C)C(=O)O)c(N2CCC(C)(C)CC2)c1-c1ccc(S(=O)(CCc2ccc(F)cc2)=NC(=O)OC(C)(C)C)cc1` (stereo partly drawn) [Example 81, (2S)-2-(tert-Butoxy)-2-(5-(4-(N-(tert-butoxycarbonyl)-2-(4-fluorophenyl)ethylsulfonimidoyl)phenyl)-4-(4,4-dimethylpiperidin-1-yl)-2,6-dimethylpyridin-3-yl)acetic acid], the EC50 was less than 0.1 µM.

Turning to `COc1ccc(-c2ccc(-c3c(C)nc(C)c([C@H](OC(C)(C)C)C(=O)O)c3N3CCC(C)(C)CC3)cc2)cc1` [Example 16, (S)-2-(tert-Butoxy)-2-(4-(4,4-dimethylpiperidin-1-yl)-5-(4′-methoxy-[1,1′-biphenyl]-4-yl)-2,6-dimethylpyridin-3-yl)acetic acid], the EC50 is less than 0.1 µM. For the molecule `Cc1nc(C)c([C@H](OC(C)(C)C)C(=O)O)c(N2CCC(C)(C)CC2)c1-c1ccc(C=O)cc1` [Example 83, (S)-2-(tert-Butoxy)-2-(4-(4,4-dimethylpiperidin-1-yl)-5-(4-formylphenyl)-2,6-dimethylpyridin-3-yl)acetic acid], the EC50 is less than 0.1 µM. On the same count and under the same terms, for `Cc1cc(-c2c(C)nc(C)c([C@H](OC(C)(C)C)C(=O)O)c2N2CCC(C)(C)CC2)ccc1F` [Example 39, (S)-2-(tert-Butoxy)-2-(4-(4,4-dimethylpiperidin-1-yl)-5-(4-fluoro-3-methylphenyl)-2,6-dimethylpyridin-3-yl)acetic acid] the value was less than 0.1 µM; for `Cc1nc(C)c([C@H](OC(C)(C)C)C(=O)O)c(N2CCC(C)CC2)c1-c1ccc(C(=O)NCc2ccccc2)cc1` [Example 58, (S)-2-(5-(4-(Benzylcarbamoyl)phenyl)-2,6-dimethyl-4-(4-methylpiperidin-1-yl)pyridin-3-yl)-2-(tert-butoxy)acetic acid], less than 0.1 µM. On the same count and under the same terms, for `Cc1nc(C)c([C@H](OC(C)(C)C)C(=O)O)c(N2CC(C)CC(C)C2)c1-c1ccc(C(=O)NCc2ccccc2)cc1` (stereo partly drawn) [Example 53] the value was 0.1 to 1 µM. As for `Cc1nc(C)c([C@H](OC(C)(C)C)C(=O)O)c(N2CCC(C)(C)CC2)c1-c1ccc(C(N)=O)cc1` [Example 25, (S)-2-(tert-Butoxy)-2-(5-(4-carbamoylphenyl)-4-(4,4-dimethylpiperidin-1-yl)-2,6-dimethylpyridin-3-yl)acetic acid], the EC50 lay in the range of 0.1 to 1 µM. On the same count and under the same terms, in the case of `Cc1nc(C)c([C@H](OC(C)(C)C)C(=O)O)c(N2CCC(C)(C)CC2)c1-c1ccc(S(=O)(=O)CCc2ccc(F)cc2)cc1` [Example 79, (S)-2-(tert-Butoxy)-2-(4-(4,4-dimethylpiperidin-1-yl)-5-(4-((4-fluorophenethyl)sulfonyl)phenyl)-2,6-dimethylpyridin-3-yl)acetic acid] it was less than 0.1 µM; in that of `Cc1nc(C)c([C@H](OC(C)(C)C)C(=O)O)c(N2CCC(C)(C)CC2)c1-c1ccc(N(CCO)CCc2ccc(F)cc2)cc1` [Example 77, (S)-2-(tert-Butoxy)-2-(4-(4,4-dimethylpiperidin-1-yl)-5-(4-((4-fluorophenethyl)(2-hydroxyethyl)amino)phenyl)-2,6-dimethylpyridin-3-yl)acetic acid], less than 0.1 µM. As to `Cc1nc(C)c([C@H](OC(C)(C)C)C(=O)O)c(N2CCC(C)(C)CC2)c1-c1ccc(C(=O)NCc2ccccn2)cc1` [Example 66, (S)-2-(tert-Butoxy)-2-(4-(4,4-dimethylpiperidin-1-yl)-2,6-dimethyl-5-(4-((pyridin-2-ylmethyl)carbamoyl)phenyl)pyridin-3-yl)acetic acid], the EC50 was less than 0.1 µM.

Take `Cc1ccc(-c2c(C)nc(C)c([C@H](OC(C)(C)C)C(=O)O)c2N2CCC(C)(C)CC2)cc1F` [Example 19, (S)-2-(tert-Butoxy)-2-(4-(4,4-dimethylpiperidin-1-yl)-5-(3-fluoro-4-methylphenyl)-2,6-dimethylpyridin-3-yl)acetic acid]: the EC50 was less than 0.1 µM. For the molecule `Cc1nc(C)c([C@H](OC(C)(C)C)C(=O)O)c(N2CCC(C)(C)CC2)c1-c1ccc(CCc2ccc(F)cc2)cc1` [Example 85, (S)-2-(tert-Butoxy)-2-(4-(4,4-dimethylpiperidin-1-yl)-5-(4-(4-fluorophenethyl)-phenyl)-2,6-dimethylpyridin-3-yl)acetic acid], the EC50 was less than 0.1 µM. In the case of `CCCCCc1ccc(-c2c(C)nc(C)c([C@H](OC(C)(C)C)C(=O)O)c2N2CCC(C)(C)CC2)cc1` [Example 22, (S)-2-(tert-Butoxy)-2-(4-(4,4-dimethylpiperidin-1-yl)-2,6-dimethyl-5-(4-pentylphenyl)pyridin-3-yl)acetic acid], the EC50 is less than 0.1 µM. Same read-out and setting: for `Cc1nc(C)c([C@H](OC(C)(C)C)C(=O)O)c(N2CCC(C)(C)CC2)c1-c1ccc(N)cc1` [Example 70, (S)-2-(5-(4-Aminophenyl)-4-(4,4-dimethylpiperidin-1-yl)-2,6-dimethylpyridin-3-yl)-2-(tert-butoxy)acetic acid] the value was 0.1 to 1 µM; for `CC(C)=C1CCN(c2c(-c3ccc(C(=O)NCc4ccccc4)cc3)c(C)nc(C)c2[C@H](OC(C)(C)C)C(=O)O)CC1` [Example 63, (S)-2-(5-(4-(Benzylcarbamoyl)phenyl)-2,6-dimethyl-4-(4-(propan-2-ylidene)piperidin-1-yl)pyridin-3-yl)-2-(tert-butoxy)acetic acid], 0.1 to 1 µM.

`CCCOc1ccc(-c2ccc(-c3c(C)nc(C)c([C@H](OC(C)(C)C)C(=O)O)c3N3CCC(C)(C)CC3)cc2)cc1` [Example 9, (S)-2-(tert-Butoxy)-2-(4-(4,4-dimethylpiperidin-1-yl)-2,6-dimethyl-5-(4′-propoxy-[1,1′-biphenyl]-4-yl)pyridin-3-yl)acetic acid]: the EC50 is less than 0.1 µM.

Consider `Cc1nc(C)c([C@H](OC(C)(C)C)C(=O)O)c(N2CCC(C)(C)CC2)c1-c1ccc(SCCc2ccc(F)cc2)cc1` [Example 78, (S)-2-(tert-Butoxy)-2-(4-(4,4-dimethylpiperidin-1-yl)-5-(4-((4-fluorophenethyl)thio)phenyl)-2,6-dimethylpyridin-3-yl)acetic acid], for which the EC50 was less than 0.1 µM. Still for that read-out and setting: in the case of `Cc1nc(C)c([C@H](OC(C)(C)C)C(=O)O)c(N2CCC(C)(C)CC2)c1-c1ccc(-c2ccc(OC(C)C)cc2)cc1` [Example 10, (S)-2-(tert-Butoxy)-2-(4-(4,4-dimethylpiperidin-1-yl)-5-(4′-isopropoxy-[1,1′-biphenyl]-4-yl)-2,6-dimethylpyridin-3-yl)acetic acid] it was less than 0.1 µM. Turning to `Cc1nc(C)c([C@H](OC(C)(C)C)C(=O)O)c(N2CCC(C)(C)CC2)c1-c1ccc(C=Cc2ccc(F)cc2)cc1` [Example 84, (S)-2-(tert-Butoxy)-2-(4-(4,4-dimethylpiperidin-1-yl)-5-(4-(4-fluorostyryl)phenyl)-2,6-dimethylpyridin-3-yl)acetic acid], the EC50 lay within 0.1 to 1 µM. The same measure, in the same setting: in the case of `Cc1nc(C)c([C@H](OC(C)(C)C)C(=O)O)c(N2CCC(C)(C)CC2)c1-c1ccc(-c2ncc(-c3ccc(F)cc3)o2)cc1` [Example 5, (S)-2-(tert-Butoxy)-2-(4-(4,4-dimethylpiperidin-1-yl)-5-(4-(5-(4-fluorophenyl)oxazol-2-yl)phenyl)-2,6-dimethylpyridin-3-yl)acetic acid] it was less than 0.1 µM; in that of `Cc1nc(C)c([C@H](OC(C)(C)C)C(=O)O)c(N2CCC(C)(C)CC2)c1-c1ccc(N2CCCCC2)cc1` [Example 29, (S)-2-(tert-Butoxy)-2-(4-(4,4-dimethylpiperidin-1-yl)-2,6-dimethyl-5-(4-(piperidin-1-yl)phenyl)pyridin-3-yl)acetic acid], less than 0.1 µM.

Still in this assay, the particulars now being: Renilla, NL43, 120 h, read-out: EC50 μM.
Regarding `Cc1cc(CNC(=O)c2ccc(-c3c(C)nc(C)c([C@H](OC(C)(C)C)C(=O)O)c3N3CCC(C)(C)CC3)cc2)ccc1F` [Example 1, (S)-2-(tert-Butoxy)-2-(4-(4,4-dimethylpiperidin-1-yl)-5-(4-((4-fluoro-3-methylbenzyl)carbamoyl)phenyl)-2,6-dimethylpyridin-3-yl)acetic acid], the EC50 amounted to 0.007 µM. On the same count and under the same terms, in the case of `Cc1nc(C)c([C@H](OC(C)(C)C)C(=O)O)c(N2CCC(C)(C)CC2)c1-c1ccc(SCCc2ccc(F)cc2)cc1` [Example 78, (S)-2-(tert-Butoxy)-2-(4-(4,4-dimethylpiperidin-1-yl)-5-(4-((4-fluorophenethyl)thio)phenyl)-2,6-dimethylpyridin-3-yl)acetic acid] it was 0.016 µM. Consider `Cc1nc(C)c([C@H](OC(C)(C)C)C(=O)O)c(N2CCC(C)(C)CC2)c1-c1ccc(C=Cc2ccc(F)cc2)cc1` [Example 84, (S)-2-(tert-Butoxy)-2-(4-(4,4-dimethylpiperidin-1-yl)-5-(4-(4-fluorostyryl)phenyl)-2,6-dimethylpyridin-3-yl)acetic acid], for which the EC50 amounted to 0.126 µM.
